The source of these data is ChEMBL document CHEMBL4002571, “Novel designed VmCT1 analogs with increased antimicrobial activity” (Eur J Med Chem, 2017).

The test system of data set [1] is Candida parapsilosis. Put plainly: Antifungal activity against Candida parapsilosis IOC 4564 after 18 hrs by liquid growth inhibition assay. Format: functional. Conditions: Lodderomyces parapsilosis, IOC 4564, 18 h; read-out: MIC100.
Another data set relates to Candida albicans. The data set is described as follows: Antifungal activity against Candida albicans MDM8 after 18 hrs by liquid growth inhibition assay. The data set is classed as functional. Particulars: MDM8, 18 h, read-out: MIC100.
The test system of data set [2] is Bacillus spizizenii. Put plainly: Antibacterial activity against Bacillus subtilis ATCC 6633 after 18 hrs by liquid growth inhibition assay. The data set is classed as functional. Particulars: ATCC 6633, 18 h, read-out: MIC100.
Data set [3] deals with Pseudomonas aeruginosa. The data set is described as follows: Antibacterial activity against Pseudomonas aeruginosa ATCC 27853 after 18 hrs by liquid growth inhibition assay. Format: functional. Conditions: ATCC 27853, 18 h, read-out: MIC100.
Data set [4] relates to Enterobacter cloacae. Put plainly: Antibacterial activity against Enterobacter cloacae beta-12 after 18 hrs by liquid growth inhibition assay. Format: functional. Conditions: beta-12, 18 h, read-out: MIC100.
In data set [5] the test system is Escherichia coli. The data set is described as follows: Antibacterial activity against Escherichia coli SBS 363 after 18 hrs by liquid growth inhibition assay. The data set is classed as functional. Conditions: SBS 363, 18 h, read-out: MIC100.
In a further data set the test system is Candida tropicalis. The data set is described as follows: Antifungal activity against Candida tropicalis IOC 4560 after 18 hrs by liquid growth inhibition assay. Conditions: IOC 4560, 18 h, read-out: MIC100. Format: functional.
For data set [6], the system named is Staphylococcus aureus. Put plainly: Antibacterial activity against Staphylococcus aureus ATCC 29213 after 18 hrs by liquid growth inhibition assay. Particulars: ATCC 29213, 18 h, read-out: MIC100. Format: functional.
Data set [7] deals with Staphylococcus epidermidis. The data set is described as follows: Antibacterial activity against Staphylococcus epidermidis ATCC 12228 after 18 hrs by liquid growth inhibition assay. Format: functional. Particulars: ATCC 12228, 18 h, read-out: MIC100.
For the next data set, the system named is Cryptococcus neoformans. Put plainly: Antifungal activity against Cryptococcus neoformans after 18 hrs by liquid growth inhibition assay. Conditions: read-out: MIC100. Format: functional.
The next data set concerns Serratia marcescens. The data set is described as follows: Antibacterial activity against Serratia marcescens ATCC 4112 after 18 hrs by liquid growth inhibition assay. Format: functional. Particulars: ATCC 4112, 18 h, read-out: MIC100.
The test system of another data set is Micrococcus luteus. The data set is described as follows: Antibacterial activity against Micrococcus luteus A270 after 18 hrs by liquid growth inhibition assay. The data set is classed as functional. Conditions: A270, 18 h, read-out: MIC100.
The subject of data set [8] is Aspergillus niger. The data set is described as follows: Antifungal activity against Aspergillus niger after 72 hrs by liquid growth inhibition assay. Format: functional. Particulars: read-out: MIC100.
In the next data set the test system is Erythrocyte. Put plainly: Hemolytic activity in human erythrocytes after 1 hr. Format: ADME, cell-based.
In data set [9] the test system is Escherichia coli. The data set is described as follows: Antibacterial activity against Escherichia coli D31 after 18 hrs by liquid growth inhibition assay. Format: functional. Particulars: D31, 18 h, read-out: MIC100.
Data set [10] concerns Cladosporium herbarum. Put plainly: Antifungal activity against Cladosporium herbarum after 72 hrs by liquid growth inhibition assay. The data set is classed as functional. Conditions: read-out: MIC100.
In data set [11] the test system is Staphylococcus aureus. Put plainly: Antibacterial activity against Staphylococcus aureus ATCC 25923 measured every 4 hrs by broth micro-dilution method. Conditions: ATCC 25923, 4 h. Format: functional.
Data set [12] deals with Bacillus spizizenii. The data set is described as follows: Antibacterial activity against Bacillus subtilis ATCC 6633 measured every 4 hrs by broth micro-dilution method. Format: functional. Particulars: ATCC 6633, 4 h.
Data set [13] has as its system Escherichia coli. Put plainly: Antibacterial activity against Escherichia coli ATCC 25922 measured every 4 hrs by broth micro-dilution method. The data set is classed as functional. Conditions: ATCC 25922, 4 h.
For data set [14], the system named is Pseudomonas aeruginosa. The data set is described as follows: Antibacterial activity against Pseudomonas aeruginosa ATCC 9027 measured every 4 hrs by broth micro-dilution method. Format: functional. Conditions: ATCC 9027, 4 h.
Data set [15] has as its system Escherichia coli. The data set is described as follows: Antibacterial activity against Escherichia coli SBS 363 up to 50 umol/L after 18 hrs by liquid growth inhibition assay. The data set is classed as functional.
The test system of data set [16] is Enterobacter cloacae. Put plainly: Antibacterial activity against Enterobacter cloacae beta-12 up to 50 umol/L after 18 hrs by liquid growth inhibition assay. The data set is classed as functional.
The subject of data set [17] is Bacillus spizizenii. The data set is described as follows: Antibacterial activity against Bacillus subtilis ATCC 6633 up to 50 umol/L after 18 hrs by liquid growth inhibition assay. The data set is classed as functional.
Data set [18] deals with Aspergillus niger. The data set is described as follows: Antifungal activity against Aspergillus niger up to 50 umol/L after 72 hrs by liquid growth inhibition assay. Format: functional.
Data set [19] relates to Cladosporium herbarum. The data set is described as follows: Antifungal activity against Cladosporium herbarum up to 50 umol/L after 72 hrs by liquid growth inhibition assay. The data set is classed as functional.
The subject of data set [20] is Candida parapsilosis. Put plainly: Antifungal activity against Candida parapsilosis IOC 4564 up to 50 umol/L after 18 hrs by liquid growth inhibition assay. The data set is classed as functional.

Activity calls are given as the source filed them. The calls are words filed in the database; no cut-off is given here.

As to H-FLGALWEVAKSVF-NH2, the MIC in the data set on Candida parapsilosis [1] amounted to 50 µM; with Candida albicans, 12.5 µM; in the data set with Bacillus spizizenii [2] it was 12.5 µM; with Pseudomonas aeruginosa [3], 0.78 µM; in the data set with Enterobacter cloacae [4], 25 µM; in the data set on Escherichia coli [5], 12.5 µM. Also, the MIC was determined as 12.5 µM in the data set on Candida tropicalis; 6.25 µM in the data set with Staphylococcus aureus [6]; 6.25 µM in [7]; 6.25 µM in the data set with Cryptococcus neoformans; 1.56 µM in the data set with Serratia marcescens; 1.56 µM with Micrococcus luteus. Further, the MIC with Aspergillus niger [8] worked out at 25 µM; in the data set on Escherichia coli [9], 12.5 µM; in the data set with Cladosporium herbarum [10], 25 µM. Also, the MHC with Erythrocyte turned out to be 1.6 µmol/L.
With H-FLGALWKVAKSVF-NH2, the MIC with Candida parapsilosis [1] worked out at 1.56 µM; with Candida albicans, 1.56 µM; in the data set on Bacillus spizizenii [2] it was 3.12 µM; in the data set on Pseudomonas aeruginosa [3], 0.39 µM; in the data set with Enterobacter cloacae [4], 6.25 µM; in the data set on Escherichia coli [5], 1.56 µM. The MIC is 1.56 µM with Candida tropicalis; 1.56 µM in the data set with Staphylococcus aureus [6]; 1.56 µM in data set [7]; 1.56 µM in the data set with Cryptococcus neoformans; 0.78 µM in the data set on Serratia marcescens; 1.56 µM in the data set with Micrococcus luteus. Also, the MIC with Aspergillus niger [8] turned out to be 6.25 µM; in the data set on Escherichia coli [9], 1.56 µM; in the data set with Cladosporium herbarum [10] it was 12.5 µM. In the data set with Erythrocyte, this substance registered an MHC of 1.6 µmol/L.
Take H-FLGALWNVAKKVF-NH2: the MIC was found to be 6.25 µM with Candida parapsilosis [1]; 1.56 µM in the data set with Candida albicans; 6.25 µM in the data set on Bacillus spizizenii [2]; 0.39 µM in the data set on Pseudomonas aeruginosa [3]; 6.25 µM with Enterobacter cloacae [4]; 1.56 µM with Escherichia coli [5]. In addition, the MIC with Candida tropicalis worked out at 3.12 µM; with Staphylococcus aureus [6], 1.56 µM; in data set [7], 1.56 µM; in the data set with Cryptococcus neoformans, 1.56 µM; with Serratia marcescens it was 0.78 µM; in the data set on Micrococcus luteus it was 1.56 µM. In addition, the MIC in the data set with Aspergillus niger [8] was 6.25 µM; in the data set with Escherichia coli [9], 1.56 µM; in the data set on Cladosporium herbarum [10], 6.25 µM. For the same substance, the MHC in the data set with Erythrocyte worked out at 1.6 µmol/L.
H-FLGALWNVAKSVF-NH2: the MIC turned out to be 25 µM with Candida parapsilosis [1]; 12.5 µM in the data set on Candida albicans; 25 µM with Bacillus spizizenii [2]; 0.78 µM with Pseudomonas aeruginosa [3]; 25 µM in the data set on Enterobacter cloacae [4]; 10 µM against Staphylococcus aureus [11]. In addition, the MIC with Candida tropicalis was determined as 6.25 µM; against Bacillus spizizenii [12] it was 20 µM; in the data set on Escherichia coli [13] it was 25 µM; in the data set with Staphylococcus aureus [6], 3.12 µM; in data set [7] it was 3.12 µM; in the data set with Cryptococcus neoformans, 3.12 µM. The MIC in the data set on Serratia marcescens turned out to be 1.56 µM; with Micrococcus luteus, 1.56 µM; with Aspergillus niger [8], 25 µM; in the data set with Pseudomonas aeruginosa [14], 10 µM; in the data set with Escherichia coli [9], 3.12 µM; in the data set with Cladosporium herbarum [10], 50 µM. In the data set on Erythrocyte, this substance yielded an MHC of 6.25 µmol/L.
For the substance H-FLGALWNVWKSVF-NH2, the MIC in the data set with Candida parapsilosis [1] worked out at 50 µM; in the data set on Candida albicans it was 1.56 µM; with Bacillus spizizenii [2], 6.25 µM; in the data set with Pseudomonas aeruginosa [3], 0.78 µM; with Enterobacter cloacae [4], 6.25 µM; with Escherichia coli [5], 1.56 µM. In addition, the MIC in the data set on Candida tropicalis was determined as 6.25 µM; in the data set with Staphylococcus aureus [6] it was 1.56 µM; in data set [7] it was 3.12 µM; in the data set on Cryptococcus neoformans, 3.12 µM; in the data set on Serratia marcescens it was 1.56 µM; in the data set with Micrococcus luteus it was 1.56 µM. For the same substance, the MIC turned out to be 50 µM in the data set with Aspergillus niger [8], 1.56 µM in the data set with Escherichia coli [9] and 50 µM in the data set on Cladosporium herbarum [10]. Also, in the data set on Erythrocyte, the MHC came out at 1.6 µmol/L.
Regarding H-FLGELWNVAKSVF-NH2, the MIC in the data set on Candida albicans worked out at 50 µM; in the data set with Pseudomonas aeruginosa [3] it was 3.12 µM; with Candida tropicalis, 12.5 µM; in the data set on Staphylococcus aureus [6], 50 µM; in [7], 50 µM; in the data set with Cryptococcus neoformans it was 12.5 µM. In addition, the MIC in the data set on Serratia marcescens was found to be 3.12 µM; in the data set with Micrococcus luteus it was 25 µM; in the data set with Escherichia coli [9], 50 µM. Also, the “growth inhibition (GI)” value with Escherichia coli [15], in the data set with Enterobacter cloacae [16], in the data set on Bacillus spizizenii [17], with Aspergillus niger [18], in the data set with Cladosporium herbarum [19] and in the data set with Candida parapsilosis [20] was “inactive” in each case. The MHC in the data set on Erythrocyte is 25 µmol/L.
With H-FLGELWNVWKSVF-NH2, the MIC with Candida albicans came out at 6.25 µM; with Bacillus spizizenii [2], 12.5 µM; with Pseudomonas aeruginosa [3] it was 3.12 µM; in the data set on Enterobacter cloacae [4], 50 µM; in the data set with Escherichia coli [5], 12.5 µM; in the data set with Candida tropicalis it was 12.5 µM. In addition, the MIC in the data set on Staphylococcus aureus [6] was determined as 12.5 µM; in [7] it was 6.25 µM; in the data set on Cryptococcus neoformans, 6.25 µM; with Serratia marcescens, 3.12 µM; in the data set with Micrococcus luteus, 3.12 µM; with Escherichia coli [9], 6.25 µM. Further, the “growth inhibition (GI)” value in the data set on Aspergillus niger [18], in the data set on Cladosporium herbarum [19] and in the data set with Candida parapsilosis [20] was “inactive” in each case. The MHC in the data set on Erythrocyte came out at 1.6 µmol/L.
As for H-FLKALWNVAKSVF-NH2, the MIC is 6.25 µM in the data set with Candida parapsilosis [1]; 3.12 µM in the data set on Candida albicans; 6.25 µM in the data set with Bacillus spizizenii [2]; 0.78 µM in the data set on Pseudomonas aeruginosa [3]; 6.25 µM with Enterobacter cloacae [4]; 1.56 µM in the data set on Escherichia coli [5]. Besides, the MIC with Candida tropicalis was determined as 3.12 µM; in the data set with Staphylococcus aureus [6], 3.12 µM; in data set [7], 3.12 µM; in the data set with Cryptococcus neoformans, 3.12 µM; in the data set with Serratia marcescens it was 1.56 µM; in the data set with Micrococcus luteus it was 0.78 µM. For the same substance, the MIC in the data set with Aspergillus niger [8] turned out to be 12.5 µM; in the data set on Escherichia coli [9], 1.56 µM; in the data set with Cladosporium herbarum [10], 25 µM. The MHC in the data set with Erythrocyte was determined as 1.6 µmol/L.
